Test results reported in patent publication US4172829A, “2,9-Disubstituted adenine derivatives and their use as non-adrenergic bronchodilators” (Bristol-Myers Company, priority 1978, dated 1979).
In brackets after ≈: the same amount, converted by molar mass.

Assays:
platelet aggregation = settings: Chem Pharm. Bull., 25(7), 1811-1821 (1977); cited from earlier work
[1] = Separation of bronchodilator and cardiovascular effects (ABP/ITP); settings: guinea pig, in vivo, ratio of hypotensive ED20 / bronchodilating ED50
Experimental: To assess the separation of desirable bronchodilator activity from undesirable cardiovascular (hypotensive) effect in the test compounds, the ratio of hypotensive ED20 /bronchodilating ED50 was calculated and indicated in Table 1.

[2] = test system: Arterial blood pressure (ABP); experiment: In vivo hypotensive activity, arterial blood pressure (ABP); parameters: species or system guinea pig; settings: arterial blood pressure lowering, ED20, reduces ABP by 20%
Experimental: Pharmac., 21, 379 (1969). The trachea of anesthetized guinea pig was cannulated and the ITP recorded on a polygraph under artificial ventilation. Arterial blood pressure (ABP; measure of hypotensive activity) was also measured during the experiment. Data was obtained for both intravenous and intraduodenal administration.

[3] = test system: intratracheal pressure (ITP) of guinea pig; experiment: In vivo bronchodilator activity, intratracheal pressure test (ITP); settings: Cavia porcellus, 50% decrease in intratracheal pressure
Experimental: The trachea of anesthetized guinea pig was cannulated and the ITP recorded on a polygraph under artificial ventilation. Arterial blood pressure (ABP; measure of hypotensive activity) was also measured during the experiment. Data was obtained for both intravenous and intraduodenal administration.

[4] = test system: Tracheal chains of guinea pig; experiment: In vitro bronchodilator activity, isolated tracheal chain (ITC); assay type: cell-based; settings: Cavia porcellus, relaxation 50% of the maximum response to 0.1 mcg./ml. of isoproterenol
Experimental: Tracheal chains of guinea pig were prepared by the method described by A. Akcasu in Arch. Int. Pharmacodyn. Ther., 122, 201 (1959). The response to each test compound was recorded by the Magnus method and expressed as a percentage of the maximum response obtained with 0.1 mcg./ml. of isoproterenol prior to each experiment.

[5] = prior art; cited from earlier work
[6] = known disadvantages, prior art; cited from earlier work
bronchial constriction = settings: prior art; bronchial asthma; cited from earlier work

Row | Structure (SMILES) | inhibition of platelet aggregation (in words) (platelet aggregation) | selectivity ratio ([1]; intravenous) | ED20 ([2]; intravenous) | ED50 ([3]; intravenous) | EC50 [4] | selectivity ratio ([1]; intraduodenal) | ED20 ([2]; intraduodenal) | ED50 ([3]; intraduodenal) | solubility (in words) [5] | side effects (in words) [6] | bronchodilator activity (in words) (bronchial constriction)
1 | Nc1nc(SC2CCCC2)nc2c1ncn2C1CCCC1 | slightly effective | – | – | – | – | – | – | – | – | – | –
2 | CCCCOc1nc(N)c2ncn(C3C=CCCC3)c2n1 (stereo not shown) [n-C4 H9 O / drawing 31, 9-(2-Cyclohexenyl)-2-n-butoxy-9H-adenine] | – | > 4.8 | > 3 mg/kg | 0.65 mg/kg | 0.045 µg/mL (≈ 0.157 µM) | – | – | – | – | – | –
3 | CCCCCCOc1nc(N)c2ncn(C3CCCCC3)c2n1 [n-C6 H13 O / drawing 30, 2-n-Hexyloxy-9-cyclohexyl-9H-adenine] | – | – | > 3 mg/kg | > 3 mg/kg | 1.4 µg/mL (≈ 4.41 µM) | – | – | – | – | – | –
4 | CCCCCOc1nc(N)c2ncn(C3C=CCCC3)c2n1 (stereo not shown) [n-C5 H11 O / drawing 31, 9-(2-Cyclohexenyl)-2-n-pentyloxy-9H-adenine] | – | – | > 3 mg/kg | > 3 mg/kg | 0.59 µg/mL (≈ 1.96 µM) | – | – | – | – | – | –
5 | CCCCOc1nc(N)c2ncn(C3CCCCC3)c2n1 [n-C4 H9 O / drawing 30, 2-n-Butoxy-9-cyclohexyl-9H-adenine] | – | 1470 | 4.4 mg/kg | 0.003 mg/kg | 0.025 µg/mL (≈ 0.0864 µM) | 5.9 | 8.3 mg/kg | 1.4 mg/kg | – | – | –
6 | Cn1c(=O)c2[nH]cnc2n(C)c1=O [aminophylline] | – | – | – | – | 16.6 µg/mL (≈ 92.1 µM) | – | – | – | readily soluble | gastric irritation and cardiovascular and central nervous system side effects | effective bronchodilator when given orally
7 | Cn1c(=O)c2[nH]cnc2n(C)c1=O [Theophylline] | – | – | – | – | – | – | – | – | – | – | potent and useful non-adrenergic bronchodilator
8 | CC(C)COc1nc(N)c2ncn(C3C=CCCC3)c2n1 (stereo not shown) [iso-C4 H9 O / drawing 31, 9-(2-Cyclohexenyl)-2-isobutoxy-9H-adenine] | – | – | 2.4 mg/kg | > 3 mg/kg | 0.41 µg/mL (≈ 1.43 µM) | – | – | – | – | – | –
9 | CCOc1nc(N)c2ncn(C3CCCCC3)c2n1 [C2 H5 O / drawing 30, 2-Ethoxy-9-cyclohexyl-9H-adenine] | – | 6.8 | 2.5 mg/kg | 0.37 mg/kg | 0.18 µg/mL (≈ 0.689 µM) | – | – | – | – | – | –
10 | CCCOc1nc(N)c2ncn(C3C=CCCC3)c2n1 (stereo not shown) [n-C3 H7 O / drawing 31, 9-(2-Cyclohexenyl)-2-n-propoxy-9H-adenine] | – | 5.9 | 2.0 mg/kg | 0.34 mg/kg | 0.027 µg/mL (≈ 0.0988 µM) | 2 | 2.4 mg/kg | 1.2 mg/kg | – | – | –
11 | CCCCCOc1nc(N)c2ncn(C3CCCCC3)c2n1 [n-C5 H11 O / drawing 30, 2-n-Pentyloxy-9-cyclohexyl-9H-adenine] | – | – | > 3 mg/kg | > 3 mg/kg | 1.8 µg/mL (≈ 5.93 µM) | – | – | – | – | – | –
12 | CC(C)COc1nc(N)c2ncn(C3CCCCC3)c2n1 [isO-C4 H9 O / drawing 30, 2-Isobutoxy-9-cyclohexyl-9H-adenine] | – | – | > 3 mg/kg | > 3 mg/kg | 0.31 µg/mL (≈ 1.07 µM) | – | – | – | – | – | –
13 | CCCOc1nc(N)c2ncn(C3CCCCC3)c2n1 [n-C3 H7 O / drawing 30, 9-Cyclohexyl-2-n-propoxy-9H-adenine] | – | 12 | 4.4 mg/kg | 0.37 mg/kg | 0.026 µg/mL (≈ 0.0944 µM) | 15 | 18 mg/kg | 1.2 mg/kg | – | – | –
14 | CCCCCCOc1nc(N)c2ncn(C3C=CCCC3)c2n1 (stereo not shown) [n-C6 H13 O / drawing 31, 9-(2-Cyclohexenyl)-2-n-hexyloxy-9H-adenine] | – | – | 2.7 mg/kg | > 3 mg/kg | > 3 µg/mL | – | – | – | – | – | –
15 | Nc1nc(Cl)nc2c1ncn2C1C=CCCC1 (stereo not shown) [Cl / drawing 31, 2-Chloro-9-(2-cyclohexenyl)-9H-adenine] | – | 17 | 2.5 mg/kg | 0.15 mg/kg | 0.12 µg/mL (≈ 0.481 µM) | – | – | – | – | – | –
16 | CCOc1nc(N)c2ncn(C3C=CCCC3)c2n1 (stereo not shown) [C2 H5 O / drawing 31, 9-(2-Cyclohexenyl)-2-ethoxy-9H-adenine] | – | 12 | 4.0 mg/kg | 0.33 mg/kg | 0.088 µg/mL (≈ 0.339 µM) | 19 | 12 mg/kg | 0.62 mg/kg | – | – | –
